US20250074911A1, “MACROCYCLIC BTK INHIBITORS” (Crossfire Oncology Holding B.V., priority 2021, published 2025)
Where “and” joins values, the source holds several entries; their conditions need not be identical. Equal entries are not always repeated.

Experiments:
[1] = target: full-length wt-BTK enzyme (Homo sapiens (Human), UniProt Q06187); test: Biochemical kinase assay wt-BTK (IMAP)
Summary of the method: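 IMAP fluorescence polarization assay: 1.2 nM enzyme pre-incubated 1 h with compound at room temperature, then 50 nM fluorescein-labeled MBP-derived peptide and 4 μM ATP added. Reaction ran 2 h at room temperature in the dark before quenching with IMAP binding solution.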

[2] = target: full-length BTK C481S enzyme (Homo sapiens (Human), UniProt Q06187, C481S); test: Biochemical kinase assay BTK C481S (IMAP)
Chain of full-length BTK C481S enzyme (Q06187 whole entry C481S): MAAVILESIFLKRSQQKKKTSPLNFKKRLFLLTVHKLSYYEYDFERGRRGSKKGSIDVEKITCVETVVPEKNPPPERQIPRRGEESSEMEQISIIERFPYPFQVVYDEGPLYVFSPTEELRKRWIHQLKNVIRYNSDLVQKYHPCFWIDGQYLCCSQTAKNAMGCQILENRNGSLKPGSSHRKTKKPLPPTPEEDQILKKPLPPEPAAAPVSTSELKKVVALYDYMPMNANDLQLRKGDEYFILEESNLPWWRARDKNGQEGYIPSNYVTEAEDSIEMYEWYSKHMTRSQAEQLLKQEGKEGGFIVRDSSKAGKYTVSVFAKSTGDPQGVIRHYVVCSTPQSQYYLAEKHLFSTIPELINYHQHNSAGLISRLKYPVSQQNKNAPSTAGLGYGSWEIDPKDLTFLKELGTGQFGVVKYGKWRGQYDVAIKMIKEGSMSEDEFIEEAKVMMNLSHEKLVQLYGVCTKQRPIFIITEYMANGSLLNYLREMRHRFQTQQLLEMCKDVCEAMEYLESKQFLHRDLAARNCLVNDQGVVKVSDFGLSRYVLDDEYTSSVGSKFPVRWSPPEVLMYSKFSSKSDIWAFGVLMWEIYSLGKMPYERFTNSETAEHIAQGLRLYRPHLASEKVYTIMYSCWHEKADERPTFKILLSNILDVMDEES
Summary of the method: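 Full-length BTK C481S (1.2 nM) was pre-incubated with compound for 1 h at room temperature in the dark, then reacted with fluorescein-labelled MBP-derived peptide (50 nM) and ATP (7 μM) for 2 h. Reactions were quenched with IMAP binding solution, and IC50 values were derived from fluorescence polarization.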

[3] = tested on: wt-REC-1 mantle cell lymphoma cells; test: Cell proliferation assay wt-REC-1 (ATPlite, 72 hours); format: cell-based; settings: 72 h; read-out: IC50 wt-REC-1
Summary of the method: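 Luminescent viability read over 72 h, start-of-incubation signal recorded separately to separate growth from cell death. Percentage growth referenced to compound-free 0.3% DMSO wells; IC50 from 4-parameter logistic fit.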

REC-1 T474I cell lines = test: Cell proliferation assay REC-1 BTK T474I knock-in cells (ATPlite, 72 hours); format: cell-based; settings: Homo sapiens, Rec1; 72 hours; read-out: IC50 REC-1 T474I
Summary of the method: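 REC-1 cells carrying CRISPR knock-in mutant BTK, single-cell cloned and sequence-confirmed, were exposed to compound for 72 h and read by ATPlite luminescence. Percentage growth was calculated against the signal at the start of incubation and against untreated 0.3% DMSO wells as maximum growth.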

wt-BTK = wt-BTK (Homo sapiens (Human), UniProt Q06187); test: Binding kinetics measurements (Surface Plasmon Resonance) on wt-BTK; settings: for Kd: binding affinity by Surface Plasmon Resonance (SPR); for Tau (h) wt-BTK (Act): target residence time, SPR
Chain of wt-BTK (Q06187 whole entry): as the sequence (Q06187 whole entry C481S) above, with S481C counted along it
Summary of the method: (§1)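 SPR on biotinylated wild-type or mutant human BTK captured on streptavidin chips (immobilized at 4° C, assay at 22° C), buffer with 1% DMSO, 30 μl/min. Single-cycle kinetics, five injections of 3.16-316 nM compound; double-referenced sensorgrams fitted (two-state model for induced fit), duplicate ka, kd, KD geometrically averaged.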

BTK C481S = BTK C481S (Homo sapiens (Human), UniProt Q06187, C481S); test: Binding kinetics measurements (Surface Plasmon Resonance) on BTK C481S; settings: for Kd: binding affinity by Surface Plasmon Resonance (SPR); for Tau (h) BTK C418S (Act): target residence time for BTK C481S, SPR
Chain of BTK C481S (Q06187 whole entry C481S): as the sequence (Q06187 whole entry C481S) above
Summary of the method: as §1

BTK T316A = BTK T316A (Homo sapiens (Human), UniProt Q06187, T316A); test: Binding kinetics measurements (Surface Plasmon Resonance) on BTK T316A; settings: for Kd: binding affinity by Surface Plasmon Resonance (SPR); for Tau (h) BTK T316A (Act): target residence time, SPR
Chain of BTK T316A (Q06187 whole entry T316A): as the sequence (Q06187 whole entry C481S) above, with T316A, S481C counted along it
Summary of the method: as §1

BTK T474I = BTK T474I (Homo sapiens (Human), UniProt Q06187, T474I); test: Binding kinetics measurements (Surface Plasmon Resonance) on BTK T474I; settings: for Kd: binding affinity by Surface Plasmon Resonance (SPR); for Tau (h) BTK T474I (Act): target residence time, SPR
Chain of BTK T474I (Q06187 whole entry T474I): as the sequence (Q06187 whole entry C481S) above, with T474I, S481C counted along it
Summary of the method: as §1

BTK T474S = BTK T474S (Homo sapiens (Human), UniProt Q06187, T474S); test: Binding kinetics measurements (Surface Plasmon Resonance) on BTK T474S; settings: for residence time: SPR binding kinetics, BTK T474S, read-out: Tau (h) BTK T474S (Act), target residence time (converted); for Kd: binding affinity by Surface Plasmon Resonance (SPR)
Chain of BTK T474S (Q06187 whole entry T474S): as the sequence (Q06187 whole entry C481S) above, with T474S, S481C counted along it
Summary of the method: as §1

[4] = tested on: wt-TMD8 diffuse large B-cell lymphoma cells; test: Cell proliferation assay wt-TMD8 (ATPlite, 120 hours); format: cell-based; settings: B-cell; wt-TMD8 cells, 120 hours, ATPlite; read-out: IC50 wt-TMD8
Summary of the method: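 wt-TMD8 DLBCL cells, 1600 per well in RPMI-1640 with 10% FBS, rested ≥5 h then exposed to compound for 120 h at 37° C, 5% CO2. Viability read by ATPlite luminescence; percentage growth calculated relative to start-of-incubation signal and untreated 0.3% DMSO maximum growth.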

Chain of full-length wt-BTK enzyme (Q06187 whole entry): as the sequence (Q06187 whole entry C481S) above, with S481C counted along it

| IC50 [1] [nM] | IC50 [2] [nM] | IC50 [3] [nM] | Kd (wt-BTK) [nM] | Tau (h) wt-BTK (Act) (wt-BTK) [h] | Kd (BTK C481S) [nM] | Tau (h) BTK C418S (Act) (BTK C481S) [h] | Kd (BTK T316A) [nM] | Tau (h) BTK T316A (Act) (BTK T316A) [h] | Kd (BTK T474I) | Tau (h) BTK T474I (Act) (BTK T474I) [h] | residence time (BTK T474S) [h] | Kd (BTK T474S) [nM] | IC50 [4] [nM] | SMILES | IC50 (REC-1 T474I cell lines) [nM] |
| --- | --- | --- | --- | --- | --- | --- | --- | --- | --- | --- | --- | --- | --- | --- | --- |
| < 5 | < 5 | 100 to 1000 | < 5 | 2.66 | < 5 | 4.68 | < 5 | 1.91 | < 2 nM | 0.86 | 2.76 | < 3 | < 100 | Nc1ncc2c3c1c(-c1ccc(C(=O)Nc4cc(C(F)(F)F)ccn4)cc1)nn3[C@@H]1CCC[C@H](C1)NC(=O)CCC/C=C/2 [Example 47] | 100 to 500 |
| < 5 | < 5 | < 100 | < 5 | 5.89 | < 5 | 6.65 | < 5 | 3.22 | < 2 nM | 5.95 | 1.79 | < 3 | < 100 | Nc1ncc2c3c1c(-c1ccc(C(=O)Nc4cc(C(F)(F)F)ccn4)cc1)nn3[C@@H]1CCC[C@H](C1)NC(=O)CCOCC/C=C/2 [Example 26] | < 100 |
| < 5 | < 5 | < 100 | < 5 | 7.08 | < 5 | 4.52 | < 5 | 4.64 | < 2 nM | 0.52 | 4.32 | < 3 | < 100 | C[C@@H]1CCn2nc(-c3ccc(C(=O)Nc4cc(C(F)(F)F)ccn4)cc3)c3c(N)ncc(c32)/C=C/COCCC(=O)N1 [Example 71] | 100 to 500 |
| < 5 | < 5 | < 100 | < 5 | 1.37 | < 5 | 1.44 | < 5 |  | 10 to 50 nM and < 5 nM |  |  | < 3 | < 100 | Nc1ncc2c3c1c(-c1ccc(C(=O)Nc4ccccn4)cc1)nn3[C@@H]1CCC[C@H](C1)C(=O)NCCCCC/C=C\C2 [Example 88b] | 500 to 10000 |
| < 5 | < 5 | < 100 | < 5 | 6.77 | < 5 | 6.76 | < 5 | 1.76 | < 2 nM |  | 9.46 | < 3 | < 100 | CN1C/C=C/c2cnc(N)c3c(-c4ccc(C(=O)Nc5cc(C(F)(F)F)ccn5)cc4)nn(c23)[C@@H]2CCC[C@H](C2)NC(=O)CCC1 [Example 10] | 500 to 10000 |
| < 5 | < 5 | < 100 | < 5 | 3.70 | < 5 | 5.25 | < 5 | 3.44 | < 2 nM | 2.37 | 9.61 | < 3 | < 100 | Nc1ncc2n3c(nc(-c4ccc(C(=O)Nc5cc(C(F)(F)F)ccn5)cc4)c13)[C@@H]1CCC[C@H](C1)NC(=O)CCCCC/C=C/2 [Example 131] | < 100 |
| < 5 | < 5 | < 100 | < 5 | 0.89 | < 5 | 1.57 | < 5 |  | 10 to 50 nM and < 5 nM |  | 1.26 | < 3 | < 100 | COc1ccc(F)cc1C(=O)NCc1ccc(-c2nn3c4c(cnc(N)c24)/C=C/CO[C@H](C)C(=O)N[C@@H]2CCC[C@@H]3C2)cc1 [Example 53] | 100 to 500 |
| < 5 | < 5 | 100 to 1000 | < 5 | 2.36 | < 5 | 5.84 | < 5 | 6.08 | < 2 nM | 2.11 | 1.24 | < 3 | < 100 | C[C@H]1CC(=O)N[C@@H]2CCC[C@H](C2)n2nc(-c3ccc(C(=O)Nc4cc(C(F)(F)F)ccn4)cc3)c3c(N)ncc(c32)/C=C/CCN1C [Example 152] | < 100 |
| < 5 | < 5 | < 100 | < 5 | 2.95 | < 5 | 4.44 | < 5 | 1.36 | < 2 nM |  | 3.04 | < 3 | < 100 | Nc1ncc2c3c1c(-c1ccc(C(=O)Nc4cc(C(F)(F)F)ccn4)cc1)nn3[C@@H]1CCCN(C1)C(=O)CCCCCC(O)/C=C/2 (stereo partly shown) [Example 83] | 500 to 10000 |
| < 5 | < 5 | < 100 | < 5 | 9.97 | < 5 | 2.21 | < 5 | 2.91 | < 2 nM | 2.63 | 3.8 | < 3 | < 100 | N#Cc1ccnc(NC(=O)c2ccc(-c3nn4c5c(cnc(N)c35)/C=C/CCOCCC(=O)N[C@@H]3CCC[C@@H]4C3)cc2)c1 [Example 155] | < 100 |
| < 5 | < 5 | < 100 | < 5 | 2.32 | < 5 |  | < 5 | 2.47 | < 2 nM | 0.87 | 3.27 | < 3 | < 100 | C[C@@H]1CC(=O)N[C@@H]2CCC[C@H](C2)n2nc(-c3ccc(C(=O)Nc4cc(C(F)(F)F)ccn4)cc3)c3c(N)ncc(c32)/C=C/CN1C [Example 44] | < 100 |
| < 5 | < 5 | < 100 | < 5 | 4.48 | < 5 | 2.39 | < 5 | 3.79 | < 2 nM |  | 3.79 | < 3 | < 100 | C[C@@H]1CCn2nc(-c3ccc(C(=O)Nc4cc(C(F)(F)F)ccn4)cc3)c3c(N)ncc(c32)/C=C/CCN2CC[C@H]2C(=O)N1 [Example 68] | 500 to 10000 |
| < 5 | < 5 | 100 to 1000 | < 5 | 1.82 | < 5 | 1.92 | < 5 |  | 10 to 50 nM and < 5 nM |  | 2.09 | < 3 | < 100 | COc1ccc(F)cc1C(=O)NCc1ccc(-c2nn3c4c(cnc(N)c24)/C=C/CCCCC(=O)N[C@@H]2CCC[C@@H]3C2)cc1 [Example 51] | 100 to 500 |
| < 5 | < 5 | < 100 | < 5 | 5.24 | < 5 | 14.35 | < 5 | 3.60 | < 2 nM | 1.12 | 8.71 | < 3 | < 100 | CN1C/C=C/c2cnc(N)c3c(-c4ccc(C(=O)Nc5cc(C(F)(F)F)ccn5)cc4)nn(c23)[C@@H]2CCC[C@H](C2)NC(=O)CC1 [Example 17] | < 100 |
